Several values for one entry are separate records, joined by “and”; a condition that tells them apart may be missing. Equal entries are not always repeated. Marks after values point to notes of the source that are not given here.
Assays:
[1] = Mean group body weight in Taxol model; assay type: in vivo, rat; conditions: 150 mg/kg IP, Group 2
Description: (§1) Neuropathic pain was induced by intraperitoneal administration of Taxol at a dose level of 6 mg/kg on study days 0-6 and 12 mg/kg on study days 7-12. Following injection of Taxol animals experienced pain as was assessed using the von Frey test. The development of neuropathic pain was confirmed by measuring mechanical allodynia (Von Frey test) on study day 13 (for inclusion) and on study day 14 (1 hour and 2 hour post dosing) and 24 hour post first dosing.

[2] = system: Taxol-induced neuropathic pain; assay: Von Frey test (mechanical allodynia) in Taxol induced model of neuropathic pain; assay type: in vivo, rat; conditions: Group 2; for mean Von Frey force required for withdrawal: 150 mg/kg IP
Description: as §1
All data are presented as means±SEM. Each treatment group was compared to the Vehicle group using Two way ANOVA (for VF) followed by Tukey post-test (GraphPad). Vehicle group is compared to naïve group using T-test. A p value<0.05 is considered to represent a significant difference.
The response to tactile allodynia was evaluated using the Von Frey apparatus (Touch Test®). The rat was placed in an enclosure and positioned on a metal mesh surface, but allowed to move freely. A set of dull monofilaments provide an increasing force was applied on the animal plantar surface of the paw. The lowest force requires for animal paw withdrawal was recorded. Low force values recorded in this test indicate a painful state.

[3] = system: CNS activity (motor coordination and balance); assay: Rotarod test; assay type: in vivo, rats; conditions: 150 mg/kg i.p.; 1 and 6 hr post-dosing
Description: The objective of this study was to evaluate the potential CNS effects of LR-90 and gabapentin (the latter a widely used drug for neuropathic pain) in rats. LR-90 in 20% HPβCD formulation was delivered at a dose of 50 or 100 mg/kg by oral gavage and gabapentin (150 mg/kg) was delivered by i.p. injection. The rotarod test was employed to measure the CNS activity (motor coordination and balance) and the performance time was recorded at 0 (baseline), 1, 6 and 24 hr post-dose.

[4] = Survival of animals during the study; assay type: in vivo, rat; conditions: 150 mg/kg IP, Group 2
Description: as §1

SMILES: NCC1(CC(=O)O)CCCCC1 [Gabapentin, reference compound]
- Mean group body weight ([1]; Baseline): 223.38 g
- Mean group body weight ([1]; Day 1): 235.25 g
- Mean group body weight (% from baseline) ([1]; Day 1): 105.31%
- Mean group body weight ([1]; Day 3): 237.50 g
- Mean group body weight (% from baseline) ([1]; Day 3): 106.31%
- Mean group body weight ([1]; Day 5): 258.13 g
- Mean group body weight (% from baseline) ([1]; Day 5): 115.54%
- Mean group body weight ([1]; Day 7): 269.25 g
- Mean group body weight (% from baseline) ([1]; Day 7): 120.50%
- Mean group body weight ([1]; Day 9): 278.75 g
- Mean group body weight (% from baseline) ([1]; Day 9): 124.74%
- Mean group body weight ([1]; Day 11): 287.63 g
- Mean group body weight (% from baseline) ([1]; Day 11): 128.71%
- Mean group body weight ([1]; Day 13): 289.50 g
- Mean group body weight (% from baseline) ([1]; Day 13): 129.56%
- Mean group body weight ([1]; Day 16): 281.00 g
- Mean group body weight (% from baseline) ([1]; Day 16): 125.68%
- Mean group body weight ([1]; Day 20): 274.38 g
- Mean group body weight (% from baseline) ([1]; Day 20): 122.79%
- Mean group body weight ([1]; Day 23): 263.38 g
- Mean group body weight (% from baseline) ([1]; Day 23): 117.94%
- Mean group body weight ([1]; Day 26): 247.75 g
- Mean group body weight (% from baseline) ([1]; Day 26): 113.52%
- mean Von Frey force required for withdrawal ([2]; Baseline): 57.88 g
- mean Von Frey force required for withdrawal ([2]; Day 13 pre dosing): 9.81 g
- mean Von Frey force required for withdrawal ([2]; Day 14 1 hour post dosing): 45.13**** g
- mean Von Frey force required for withdrawal ([2]; Day 14 2 hours post dosing): 55.75±2.78 g and 55.75**** g
- mean Von Frey force required for withdrawal ([2]; Day 15 24 hours post dosing): 19.56 g
- effect on neuropathic pain compared to the vehicle group (Von Frey test) ([2]; 150 mg/kg, 1 hour and 2 hour post dosing on study day 14): statistically significantly reduced the neuropathic pain
- rotarod performance time compared with vehicle control group [3]: significantly decreased
- Survived Animals in % ([4]; Study Day 13): 100%
- Survived Animals in % ([4]; Study Day 14): 100%
- Survived Animals in % ([4]; Study Day 15): 100%
- Survived Animals in % ([4]; Study Day 16): 100%
- Survived Animals in % ([4]; Study Day 17): 100%
- Survived Animals in % ([4]; Study Day 18): 100%
- Survived Animals in % ([4]; Study Day 19): 100%
- Survived Animals in % ([4]; Study Day 20): 100%
- Survived Animals in % ([4]; Study Day 21): 100%
- Survived Animals in % ([4]; Study Day 22): 100%
- Survived Animals in % ([4]; Study Day 23): 100%
- Survived Animals in % ([4]; Study Day 24): 88%
- Survived Animals in % ([4]; Study Day 25): 63%
- Survived Animals in % ([4]; Study Day 28): 50%
